Assay results reported in US7935853B2, “Micronized composition of a 2,4-disubstituted phenol derivative” (priority 2008, dated 2011).

Tested on: arthritis induced by injection of type II collagen in the mouse
Experiment: Model of arthritis induced by type II collagen in mice (CIA), hind paw plethysmometry
Assay type: in vivo
Conditions: for Total hind paw volume (sum of both hind paws) / Oedema (difference in paw volume from basal values on day 21) in both hind paws: group mean n=10, listed as Group E; for percentage inhibition of oedema versus the control group: 10 mg/kg BID
Protocol: The aim of the study was to determine the anti-inflammatory activity of the test item in a model of arthritis induced by injection of type II collagen in the mouse (CIA) and to compare the activity of two different formulations: micronized and non-micronized.
Induction of arthritis was carried out by an initial exposure to type II bovine collagen by a subcutaneous injection at the base of the tail (induction phase).
After a recovery time of 21 days, animals received a booster injection and approximately 4-5 weeks after the first injection there was an immune response with arthritis appearing in the extremities in the majority of the cases.
Four experimental groups were used in the study with 10 animals in each group:
Group D: Positive control: FCA+vehicle B.I.D.
Group E: Micronized Test Item (Micro) 10 mg/kg B.I.D.
Group F: Non-Micronized test item 10 mg/kg B.I.D.
Group G: Reference item: Indomethacin 1 mg/kg Q.D.
The dose administered to groups E and F was 10 mg/kg.
The dose administered to group G was 1 mg/kg.
The doses of the test and reference items were expressed as mg/Kg of compound administered to each animal.
The test and reference items were administered in a solution of methylcellulose (0.25%: vehicle).
The positive control group received the vehicle (methylcellulose 0.25%).
The test and reference items, as well as the vehicle were administered orally at a dosing volume of 5 mls/kg.
The route of administration used was oral by use of an intragastric cannula.
On the day of start of the study each mouse was injected subcutaneously at the base of the tail with a first dose of 0.1 ml of an emulsion of bovine type II collagen (1 mg/mL) in Freund's Complete Adjuvant. Afterwards, on day 21 after this first injection, a second booster injection of type II collagen was administered to all animals. In this occasion the collagen suspension was done using Incomplete Freund's Adjuvant.
Coinciding with the second booster injection on day 21 treatment with the test or reference items was started to the corresponding animals.
Treatment with the test or reference items was carried out for 31 consecutive days (days 21-51 of the experimental period). Additionally, a recovery period was included at the end of the treatment period from day 52 to day 65 in order to evaluate the duration of any anti-inflammatory effect observed once dosing has been terminated.
The animals' hind paw volume was measured by plethysmometry one day before the 1st injection of collagen, again one day before the second (booster) collagen injection (basal values) and then daily after administration of test/reference item until the end of the study. During the recovery period at the end of the study, hind paw volume was measured three times per week.
Additionally the data was also represented graphically, depicting changes in total hind paw volume, as well as oedema (differences from basal (day 21) values).

[1] = day 22, oral treatment days 21-51
[2] = day 23, oral treatment days 21-51
[3] = day 26, oral treatment days 21-51
[4] = day 27, oral treatment days 21-51
[5] = day 29, oral treatment days 21-51
[6] = day 30, oral treatment days 21-51
[7] = day 33, oral treatment days 21-51
[8] = day 34, oral treatment days 21-51
[9] = day 35, oral treatment days 21-51
[10] = day 36, oral treatment days 21-51
[11] = day 37, oral treatment days 21-51
[12] = day 40, oral treatment days 21-51
[13] = day 41, oral treatment days 21-51
[14] = day 42, oral treatment days 21-51
[15] = day 43, oral treatment days 21-51
[16] = day 44, oral treatment days 21-51
[17] = day 47, oral treatment days 21-51
[18] = day 48, oral treatment days 21-51
[19] = day 49, oral treatment days 21-51
[20] = day 50, oral treatment days 21-51
[21] = day 51, oral treatment days 21-51
[22] = day 54, recovery period after treatment days 21-51
[23] = day 56, recovery period after treatment days 21-51
[24] = day 58, recovery period after treatment days 21-51
[25] = day 61, recovery period after treatment days 21-51
[26] = day 63, recovery period after treatment days 21-51
[27] = day 65, recovery period after treatment days 21-51

Oc1c(I)cc(I)cc1I [Micronized, 2,4,6-triiodophenol]
Total hind paw volume (sum of both hind paws) (day 0, before collagen and treatment): 0.169 | Total hind paw volume (sum of both hind paws) (day 20, basal, before treatment): 0.238 | Oedema (difference in paw volume from basal values on day 21) in both hind paws [1]: 0.006 | Total hind paw volume (sum of both hind paws) [1]: 0.244 | Oedema (difference in paw volume from basal values on day 21) in both hind paws [2]: −0.010 | Total hind paw volume (sum of both hind paws) [2]: 0.228 | Oedema (difference in paw volume from basal values on day 21) in both hind paws [3]: 0.014 | Total hind paw volume (sum of both hind paws) [3]: 0.252 | Oedema (difference in paw volume from basal values on day 21) in both hind paws [4]: −0.007 | Total hind paw volume (sum of both hind paws) [4]: 0.231 | Oedema (difference in paw volume from basal values on day 21) in both hind paws [5]: −0.003 | Total hind paw volume (sum of both hind paws) [5]: 0.234 | Oedema (difference in paw volume from basal values on day 21) in both hind paws [6]: −0.001 | Total hind paw volume (sum of both hind paws) [6]: 0.237 | Oedema (difference in paw volume from basal values on day 21) in both hind paws [7]: −0.007 | Total hind paw volume (sum of both hind paws) [7]: 0.231 | Oedema (difference in paw volume from basal values on day 21) in both hind paws [8]: −0.010 | Total hind paw volume (sum of both hind paws) [8]: 0.228 | Oedema (difference in paw volume from basal values on day 21) in both hind paws [9]: 0.012 | Total hind paw volume (sum of both hind paws) [9]: 0.250 | Oedema (difference in paw volume from basal values on day 21) in both hind paws [10]: 0.006 | Total hind paw volume (sum of both hind paws) [10]: 0.244 | Oedema (difference in paw volume from basal values on day 21) in both hind paws [11]: 0.001 | Total hind paw volume (sum of both hind paws) [11]: 0.239 | Oedema (difference in paw volume from basal values on day 21) in both hind paws [12]: 0.026 | Total hind paw volume (sum of both hind paws) [12]: 0.263 | Oedema (difference in paw volume from basal values on day 21) in both hind paws [13]: 0.018 | Total hind paw volume (sum of both hind paws) [13]: 0.256 | Oedema (difference in paw volume from basal values on day 21) in both hind paws [14]: 0.003 | Total hind paw volume (sum of both hind paws) [14]: 0.241 | Oedema (difference in paw volume from basal values on day 21) in both hind paws [15]: 0.006 | Total hind paw volume (sum of both hind paws) [15]: 0.244 | Oedema (difference in paw volume from basal values on day 21) in both hind paws [16]: 0.001 | Total hind paw volume (sum of both hind paws) [16]: 0.238 | Oedema (difference in paw volume from basal values on day 21) in both hind paws [17]: 0.016 | Total hind paw volume (sum of both hind paws) [17]: 0.254 | percentage inhibition of oedema versus the control group (day 48, P<0.05): 68.72±8.98% | Oedema (difference in paw volume from basal values on day 21) in both hind paws [18]: 0.016 | Total hind paw volume (sum of both hind paws) [18]: 0.254 | Oedema (difference in paw volume from basal values on day 21) in both hind paws [19]: 0.023 | Total hind paw volume (sum of both hind paws) [19]: 0.261 | percentage inhibition of oedema versus the control group (day 50, P<0.05): 70.56±9.88% | Oedema (difference in paw volume from basal values on day 21) in both hind paws [20]: 0.017 | Total hind paw volume (sum of both hind paws) [20]: 0.255 | percentage inhibition of oedema versus the control group (day 51, highly significant): 77.59±9.08% | Oedema (difference in paw volume from basal values on day 21) in both hind paws [21]: 0.013 | Total hind paw volume (sum of both hind paws) [21]: 0.251 | Oedema (difference in paw volume from basal values on day 21) in both hind paws [22]: 0.032 | Total hind paw volume (sum of both hind paws) [22]: 0.270 | Oedema (difference in paw volume from basal values on day 21) in both hind paws [23]: 0.022 | Total hind paw volume (sum of both hind paws) [23]: 0.259 | percentage inhibition of oedema versus the control group (day 56, P<0.05): 71.49±7.19% | Oedema (difference in paw volume from basal values on day 21) in both hind paws [24]: 0.030 | Total hind paw volume (sum of both hind paws) [24]: 0.268 | percentage inhibition of oedema versus the control group (day 58, P<0.05): 66.29±5.13% | Oedema (difference in paw volume from basal values on day 21) in both hind paws [25]: 0.030 | Total hind paw volume (sum of both hind paws) [25]: 0.27 | Oedema (difference in paw volume from basal values on day 21) in both hind paws [26]: 0.026 | Total hind paw volume (sum of both hind paws) [26]: 0.26 | Oedema (difference in paw volume from basal values on day 21) in both hind paws [27]: 0.029 | Total hind paw volume (sum of both hind paws) [27]: 0.27 | percentage inhibition of oedema versus the control group (day 65, P<0.05): 64.95±7.58%
